The supplement of paper PMC11208160

Test: recombinant UMI read abundance after kanamycin selection (control-corrected) (log10(CPM+1)); higher = more efficient recombination; extreme values may be limits of the assay; sequences stand for … in AGTGCAGAGAAAATCGGCCAGTTTTCTCTGCCTGCAGTCCGCATGCCGTGGGACCCCTTGGGTTCTAACCTGTTGCCTAGATTTATGCAGCGGACTGCCTTTCTCCCAAAGTGATAAACCGG…AGGTTGGTTTCACT; site = the 11-nt donor
In short: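 In a pooled Escherichia coli screen for the IS621 bridge recombinase, donor and donor-binding-loop pairs were each placed with a 12-nt UMI on a plasmid bearing a promoterless kanamycin gene. This library was co-electroporated with a target plasmid encoding a fixed target and T7-inducible recombinase, and cells were plated either on IPTG (0.07 mM) plus kanamycin or without selection, in two replicates each. Recombinant UMIs were PCR-amplified across the donor–target junction and sequenced, and counts were converted to CPM, averaged over replicates, scaled by control-derived factors and reported as log10(CPM+1).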
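Also: IS621 bridge recombinase in Escherichia coli cells against a fixed T5 target plasmid.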

Sequence | recombinant UMI read abundance (log10)
CAGTCGACATGGACCGGTTTTCCCGGTAATCCGTATTTGGT (site CAGTCGACTGC) | 1.41
CAGTCGACATGGACCGGTTTTCCCGGTAATCCGTATTTGGT (site CAGTCGACTTC) | 0.56
CAGTGCTCATGGACCGGTTTTCCCGGTAATCCGTATTTGGT (site CAGTGCTCTAC) | 2.49
CAGTTGACATGGACCGGTTTTCCCGGTAATCCGTATTTGGG (site CAGTAGACTCC) | 0
CAGTTGACATGGACCGGTTTTCCCGGTAATCCGTATTTGGG (site CAGTCGACTCC) | 0.0208
CAGTTGACATGGACCGGTTTTCCCGGTAATCCGTATTTGGG (site CAGTGGACTCC) | 0.00569
CAGTTGACATGGACCGGTTTTCCCGGTAATCCGTATTTGGG (site CAGTTGACTCC) | 0.53
CATAAAGCATGGACCGGTTTTCCCGGTAATCCGTATTTGAT (site CATAAAGCTAT) | 2.1
CATAAAGCATGGACCGGTTTTCCCGGTAATCCGTATTTGAT (site CCTAAAGCTAT) | 0.00418
CATAAAGCATGGACCGGTTTTCCCGGTAATCCGTATTTGAT (site CGTAAAGCTAT) | 0.166
CATAAAGCATGGACCGGTTTTCCCGGTAATCCGTATTTGAT (site CTTAAAGCTAT) | 0
CATACGCCATGGACCGGTTTTCCCGGTAATCCGTATTTGGG (site CATACGCCTCC) | 0.0136
CATCAGCCATGGACCGGTTTTCCCGGTAATCCGTATTTGAG (site CATCAGCCTCT) | 0.441
CATCAGTCATGGACCGGTTTTCCCGGTAATCCGTATTTGCA (site CATCAGTCTTG) | 3.13
CATCCAACATGGACCGGTTTTCCCGGTAATCCGTATTTGTC (site CATCCAACTGA) | 2.17
CATCGCACATGGACCGGTTTTCCCGGTAATCCGTATTTGGC (site CATCGCACTGC) | 2.26
CATCGCCCATGGACCGGTTTTCCCGGTAATCCGTATTTGAT (site CATCGCCCTAT) | 0.725
CATCTCTCATGGACCGGTTTTCCCGGTAATCCGTATTTGTA (site CATCTCTCTTA) | 2.66
CATCTCTCATGGACCGGTTTTCCCGGTAATCCGTATTTGTA (site CCTCTCTCTTA) | 1.42
CATCTCTCATGGACCGGTTTTCCCGGTAATCCGTATTTGTA (site CGTCTCTCTTA) | 1.23
CATCTCTCATGGACCGGTTTTCCCGGTAATCCGTATTTGTA (site CTTCTCTCTTA) | 1.98
CATGAGGCATGGACCGGTTTTCCCGGTAATCCGTATTTGGT (site CATGAGGCTAC) | 1.12
CATGCCTCATGGACCGGTTTTCCCGGTAATCCGTATTTGCT (site CATGCCTCTAG) | 2.76

Sequence | recombinant UMI read abundance (log10)
CATGGAACATGGACCGGTTTTCCCGGTAATCCGTATTTGGA (site CATGGAACTTC) | 1.99
CATGGCACATGGACCGGTTTTCCCGGTAATCCGTATTTGGA (site CATGGCACTTC) | 0.46
CATGTCACATGGACCGGTTTTCCCGGTAATCCGTATTTGGG (site CAAGTCACTCC) | 0.0107
CATGTCACATGGACCGGTTTTCCCGGTAATCCGTATTTGGG (site CACGTCACTCC) | 0.0251
CATGTCACATGGACCGGTTTTCCCGGTAATCCGTATTTGGG (site CAGGTCACTCC) | 0.0142
CATGTCACATGGACCGGTTTTCCCGGTAATCCGTATTTGGG (site CATGTCACTCC) | 0.00831
CATGTGGCATGGACCGGTTTTCCCGGTAATCCGTATTTGCT (site CATGTGGCTAG) | 1.39
CATGTTCCATGGACCGGTTTTCCCGGTAATCCGTATTTGTT (site CATGTTCCTAA) | 0.678
CATTCAACATGGACCGGTTTTCCCGGTAATCCGTATTTGAC (site CATTCAACTGT) | 0.406
CATTGTACATGGACCGGTTTTCCCGGTAATCCGTATTTGGG (site CATTGTACTCC) | 0.0267
CATTTCTCATGGACCGGTTTTCCCGGTAATCCGTATTTGTT (site CATTTCTCTAA) | 1.52
CATTTGCCATGGACCGGTTTTCCCGGTAATCCGTATTTGTG (site CATTTGCCTCA) | 0.302
CCAAAACCATGGACCGGTTTTCCCGGTAATCCGTATTTGTT (site CCAAAACCTAA) | 0.00598
CCAAAGGCATGGACCGGTTTTCCCGGTAATCCGTATTTGCC (site CCAAAGGCTGG) | 0
CCAACTACATGGACCGGTTTTCCCGGTAATCCGTATTTGGC (site CCAACTACTGC) | 0
CCAATCGCATGGACCGGTTTTCCCGGTAATCCGTATTTGCA (site CCAATCGCTTG) | 0
CCAATTACATGGACCGGTTTTCCCGGTAATCCGTATTTGCC (site CCAATTACTGG) | 0
CCACACACATGGACCGGTTTTCCCGGTAATCCGTATTTGCA (site CCACACACTTG) | 2.07
CCACCCTCATGGACCGGTTTTCCCGGTAATCCGTATTTGCT (site CCACCCTCTAG) | 1.95
CCACGGACATGGACCGGTTTTCCCGGTAATCCGTATTTGGT (site CCACGGACTAC) | 0.0137
CCACGGCCATGGACCGGTTTTCCCGGTAATCCGTATTTGTA (site CCACGGCCTTA) | 0
CCACGTCCATGGACCGGTTTTCCCGGTAATCCGTATTTGGT (site CCACGTCCTAC) | 0.0291
CCACTTGCATGGACCGGTTTTCCCGGTAATCCGTATTTGTG (site CCACTTGCTCA) | 0.358

Sequence | recombinant UMI read abundance (log10)
CCAGATGCATGGACCGGTTTTCCCGGTAATCCGTATTTGCG (site CCAGATGCTCG) | 1.59
CCAGGATCATGGACCGGTTTTCCCGGTAATCCGTATTTGAT (site CCAGGATCTAT) | 0
CCAGGCGCATGGACCGGTTTTCCCGGTAATCCGTATTTGAT (site CCAGGAGCTAT) | 1.06
CCAGGCGCATGGACCGGTTTTCCCGGTAATCCGTATTTGAT (site CCAGGCGCTAT) | 1.24
CCAGGCGCATGGACCGGTTTTCCCGGTAATCCGTATTTGAT (site CCAGGGGCTAT) | 0.00758
CCAGGCGCATGGACCGGTTTTCCCGGTAATCCGTATTTGAT (site CCAGGTGCTAT) | 0.707
CCAGGGGCATGGACCGGTTTTCCCGGTAATCCGTATTTGAT (site CCAGGAGCTAT) | 0.735
CCAGGGGCATGGACCGGTTTTCCCGGTAATCCGTATTTGAT (site CCAGGCGCTAT) | 0.972
CCAGGGGCATGGACCGGTTTTCCCGGTAATCCGTATTTGAT (site CCAGGGGCTAT) | 1.04
CCAGGGGCATGGACCGGTTTTCCCGGTAATCCGTATTTGAT (site CCAGGTGCTAT) | 0.888
CCAGTACCATGGACCGGTTTTCCCGGTAATCCGTATTTGCA (site ACAGTATCTTG) | 0
CCAGTACCATGGACCGGTTTTCCCGGTAATCCGTATTTGCA (site CCAGTACCTTG) | 0
CCAGTATCATGGACCGGTTTTCCCGGTAATCCGTATTTGAA (site ACAGTATCTTG) | 0.128
CCAGTATCATGGACCGGTTTTCCCGGTAATCCGTATTTGAA (site CCAGTATCTTT) | 1.05
CCAGTATCATGGACCGGTTTTCCCGGTAATCCGTATTTGAA (site CTAGTATCTGT) | 0
CCAGTATCATGGACCGGTTTTCCCGGTAATCCGTATTTGCC (site ACAGTATCTTG) | 0.0067
CCAGTATCATGGACCGGTTTTCCCGGTAATCCGTATTTGCC (site CCAGTATCTGG) | 1.44
CCAGTATCATGGACCGGTTTTCCCGGTAATCCGTATTTGCC (site CTAGTATCTGT) | 0
CCAGTCACATGGACCGGTTTTCCCGGTAATCCGTATTTGGA (site CCAGTCACTTC) | 0.00572
CCAGTGTCATGGACCGGTTTTCCCGGTAATCCGTATTTGCA (site ACAGTATCTTG) | 0
CCAGTGTCATGGACCGGTTTTCCCGGTAATCCGTATTTGCA (site CCAGTGTCTTG) | 1.5
CCAGTTTCATGGACCGGTTTTCCCGGTAATCCGTATTTGAC (site CCAGTTTCTGT) | 0.759
